Key:
Assay type in all cases: physicochemical
[1] = Stability of crystal forms after 4 weeks at 80° C., analyzed by XRPD; conditions: for Conversion in the solid state on storage: stored for 4 weeks at 80° C.; for Crystal form found by XRPD after storage (stability): 4 weeks at 80° C.
Procedure: Samples of the compound of formula I in crystal form A, the compound of formula I in crystal form B, a mixture of both crystal forms and an amorphous form of the compound of formula I (obtained by spray drying) are stored for 4 weeks at 80° C. under different conditions and analyzed by X-ray powder diffraction (XRPD).

[2] = Interconversion of crystal forms in the presence of solvent
[3] = Heat of solution at 25° C. in acetone
Procedure: The heat of solution of samples of crystal forms A and B of the compound of formula I are measured at 25° C. in acetone.

COC(=O)[C@@]1(OC(=O)c2sccc2C)[C@H](C)CC2C3C[C@H](F)C4=CC(=O)C=C[C@]4(C)[C@@]3(Cl)[C@@H](O)C[C@@]21C (stereo partly drawn) [Amorphous form, 3-methylthiophene-2-carboxylic acid (6S,9R,10S,11S, 13S,16R,17R)-9-chloro-6-fluoro-11-hydroxy-17-methoxycarbonyl-10,13,16-trimethyl-3-oxo-6,7,8,9,10,11,12,13,14,15,16,17-dodecahydro-3H-cyclopenta[a]phenanthren-17-yl ester]
Conversion in the solid state on storage ([1]; solid state, listed as amorphous form): can also convert into crystal form A

COC(=O)[C@@]1(OC(=O)c2sccc2C)[C@H](C)CC2C3C[C@H](F)C4=CC(=O)C=C[C@]4(C)[C@@]3(Cl)[C@@H](O)C[C@@]21C (stereo partly drawn) [Crystal form A, 3-methylthiophene-2-carboxylic acid (6S,9R,10S,11S, 13S,16R,17R)-9-chloro-6-fluoro-11-hydroxy-17-methoxycarbonyl-10,13,16-trimethyl-3-oxo-6,7,8,9,10,11,12,13,14,15,16,17-dodecahydro-3H-cyclopenta[a]phenanthren-17-yl ester]
Conversion of crystal form in the presence of ethanol ([2]; in the presence of ethanol): converts to crystal form B
Relative thermodynamic stability (from storage test) ([1]; solid state, versus crystal form B): more thermodynamically stable than crystal form B
Heat of solution ([3]; listed as A): 29.3 J/g
Relative thermodynamic stability (from heat of solution) ([3]; versus crystal form B): more thermodynamically stable than crystal form B

COC(=O)[C@@]1(OC(=O)c2sccc2C)[C@H](C)CC2C3C[C@H](F)C4=CC(=O)C=C[C@]4(C)[C@@]3(Cl)[C@@H](O)C[C@@]21C (stereo partly drawn) [Crystal form B, 3-methylthiophene-2-carboxylic acid (6S,9R,10S,11S, 13S,16R,17R)-9-chloro-6-fluoro-11-hydroxy-17-methoxycarbonyl-10,13,16-trimethyl-3-oxo-6,7,8,9,10,11,12,13,14,15,16,17-dodecahydro-3H-cyclopenta[a]phenanthren-17-yl ester]
Conversion of crystal form in the presence of isopropanol ([2]; in the presence of isopropanol): converts to crystal form A
Crystal form found by XRPD after storage (stability) ([1]; 75% r.h. (relative humidity), open): A + B
Crystal form found by XRPD after storage (stability) ([1]; N2 + 2% water): A + B
Crystal form found by XRPD after storage (stability) ([1]; O2): A + B
Conversion in the solid state on storage ([1]; solid state, listed as crystal form B): can convert at least partially in the solid state into crystal form A
Heat of solution ([3]; listed as B): 17.9 J/g

COC(=O)[C@@]1(OC(=O)c2sccc2C)[C@H](C)CC2C3C[C@H](F)C4=CC(=O)C=C[C@]4(C)[C@@]3(Cl)[C@@H](O)C[C@@]21C (stereo partly drawn) [Crystal forms A + B, 3-methylthiophene-2-carboxylic acid (6S,9R,10S,11S, 13S,16R,17R)-9-chloro-6-fluoro-11-hydroxy-17-methoxycarbonyl-10,13,16-trimethyl-3-oxo-6,7,8,9,10,11,12,13,14,15,16,17-dodecahydro-3H-cyclopenta[a]phenanthren-17-yl ester]
Crystal form found by XRPD after storage (stability) ([1]; N2): A + B
Crystal form found by XRPD after storage (stability) ([1]; sealed): A + B
